The results in this text go back to a melting point compilation (Tetko et al.; mined from patent text by program, amines drawn as free bases though some values may be those of a salt).

The structures appear in SMILES notation.

As usually defined, the melting point is the temperature of the solid-liquid transition.

In turn, `CCn1ncc2c(Cl)c3cc(S(C)(=O)=O)ccc3nc21` displayed a melting point of 158 to 160 °C.

For the molecule `COc1cc(Br)ccc1N`, the melting point was in the range of 56.5 to 58 °C.

For `NC(=S)Nc1cc(F)ccc1-c1ccccc1`, the melting point was 185 to 187 °C.

For `COc1cc2c(cc1OC)NC(=O)CCC2`, the melting point is 153 to 156 °C.

On to `Nc1ccc(C(=O)N2Cc3ccnn3Cc3ccccc32)c(Cl)c1`, for which the melting point fell in the range of 98 to 117 °C.

`CCC(=O)c1c(O)oc(=O)c(C(=O)CC)c1O` had a melting point of 114 to 115 °C.

The molecule `COC(=O)C(c1ccc(O)cc1)N1CC(NC(=O)Cc2ccccc2)C1=O` (configuration not stated) gave a melting point of 172 to 175 °C.

In the case of `O=C(Nc1ccncc1)C1c2ccccc2CCc2ccccc21`, the melting point is 148 to 149 °C.

Molecule `CCOCc1nc2c(N)nc3cc(-c4cccnc4)ccc3c2n1CC(C)(C)O` showed a melting point of 197 to 199 °C.

For `COc1c(OCc2ccc(-c3ccccc3S(=O)(=O)Nc3noc(C)c3C)c(COCCF)c2)cc(C)nc1C`, the melting point lay within 81 to 86 °C.

On to `O=C(O)CCC(=O)Nc1ccc(N2CCN(C3(c4ccc(-c5ccccc5)cc4)C(=O)NC(=O)NC3=O)CC2)cc1`, for which the melting point fell in the range of 246 to 247 °C.

`CC(NC(=O)Cc1cc(F)cc(F)c1)C(=O)NC1C(=O)NC(F)c2ccccc21` (configuration not stated) showed a melting point of 195 to 200 °C.

In turn, `Oc1ccc(C2CCCN2CCN2CCOCC2)cc1` (configuration not stated) gave a melting point of 107 to 108 °C.

The molecule `Cn1cc(C(N)=O)c([N+](=O)[O-])n1` had a melting point of 190 to 192 °C.

Turning to `COc1c(N2CC[C@@H](C(C)(C)NC(=O)OC(C)(C)C)C2)c(F)cc2c(=O)c(C(=O)O)cn(C3CC3)c12`, the melting point was in the range of 70 to 72 °C.

The molecule `N#Cc1ccc(CC23CCCN2C(=O)N(c2cc(Cl)c(N)c(Cl)c2)C3=O)cc1` (configuration not stated) showed a melting point of 103 °C.

In turn, `COc1cc(C(=O)N(C)OC)c2oc(-c3ccc(OC)c(F)c3)cc2c1` came in with a melting point of 100 to 102 °C.

Regarding `CCCOc1ccccc1-c1nc(O)cc(CC)n1`, the melting point fell in the range of 97 to 98.5 °C.

In turn, `O=C(NC(=O)c1c(F)cccc1F)Nc1cc(C(F)(F)F)cc(C(F)(F)F)n1` gave a melting point of 152 °C.

In turn, `CC(=O)OC1=C(OC(C)=O)C(=O)c2cc(Cl)ccc2C1=O` returned a melting point of 110 to 111 °C.

The molecule `CCOC(=O)C(C)(C)n1c(=O)[nH]c2ccccc2c1=O` registered a melting point of 133 to 134 °C.

For the molecule `CC(=O)c1cc(I)c(O)c(Cl)n1`, the melting point was 223 to 224 °C.

With `OCCc1nccn1CCCCc1ccc(OCc2coc(/C=C/c3ccc(Cl)cc3)n2)cc1`, the melting point fell in the range of 127 to 128 °C.

Molecule `Cn1nnnc1SCC1=NCCc2cc(OCc3ccccc3)c(OCc3ccccc3)cc21` displayed a melting point of 146 to 148 °C.

In the case of `CC(C)(C)OC(=O)Nc1sc(-c2cncc(F)c2)nc1F`, the melting point is 188 to 191 °C.

Regarding `CN(C)Cc1ccc(CSCCNc2ncc(Cc3ccn(C)c(=O)c3)c(=O)[nH]2)o1`, the melting point was 129 to 132 °C.

For `CCOC(=O)Cc1cc(Br)c(C(=O)c2ccc(C)cc2)n1C`, the melting point was in the range of 85 to 87 °C.

`CCCCCCCCCCCCc1ccc(NC(C)=O)cc1`: the melting point was in the range of 100 to 102 °C.

For the molecule `CCCC(CCC)C(=O)O[C@H]1C[C@H](O)C=C2C=C[C@H](C)[C@H](CC[C@@H]3C[C@@H](O)CC(=O)O3)[C@H]21`, the melting point lay in the range of 165 to 166 °C.

As for `COc1cc(Cl)cnc1OCC#Cc1ccc(Cl)cc1`, the melting point lay in the range of 109 to 110 °C.

As for `CCN1C(=O)CCC(C)(C)c2ccc(Nc3ncc(Cl)c(Nc4c(F)cccc4OCC#N)n3)cc21`, the melting point lay within 235 to 238 °C.

Regarding `Cc1cc(Br)cnc1CCCCNC1=NS(=O)(=O)c2cc(Br)ccc21`, the melting point lay within 224 to 232 °C.

As to `COCCNc1nccc(-c2ccnc(Nc3cccc(Cl)c3)n2)c1Cl`, the melting point stood at 172 °C.

`CC[C@H](C)[C@H](NS(=O)(=O)c1cccc2ccccc12)C(=O)N[C@@H](Cc1c[nH]c2ccccc12)C(=O)OC` gave a melting point of 172 to 174 °C.

With `Cc1cccc(C)c1CNc1cc(C(=O)N(C)C)cc2c1nc(C)n2COCc1ccccc1`, the melting point is 55 to 56 °C.

In turn, `Cc1sc(S(N)(=O)=O)cc1NC(=O)c1cnn2c(C(F)(F)F)cc(-c3ccc(C(F)(F)F)cc3)nc12` registered a melting point of 297 °C.

As for `NS(=O)(=O)c1cc2cc(O)ccc2s1`, the melting point lay within 192 to 194 °C.

`O=c1oc2ccc(Cl)cc2cc1S(=O)(=O)Cc1ccc(Cl)c([N+](=O)[O-])c1` registered a melting point of 272 to 275 °C.

For `Cc1nc(-c2cn(CC(F)(F)c3ccccc3)nn2)sc1C(=O)NCc1cccnc1`, the melting point is 150 to 151 °C.

In turn, `COc1cc(COc2nn(C)cc2C(C)=O)ccc1OCc1nc(-c2ccccc2)oc1C` yielded a melting point of 170 to 171 °C.

For `NS(=O)(=O)c1ccc(-n2nc(C(F)(F)F)cc2-c2ccc(-c3cscn3)cc2)cc1F`, the melting point was in the range of 168 to 170 °C.

With `N#Cc1ccc2c(O)c(C(=O)NCCCCN3CCN(C(c4ccccc4)c4ccccc4)CC3)cnc2c1`, the melting point fell in the range of 223 to 225 °C.

For `Cc1c(=O)n(Cc2ccc(C#N)cc2)c(=O)n2cc(C(=O)NCc3ccc(F)cc3)sc12`, the melting point was more than 220 °C.

The molecule `O=C1CCC(CCO)N1` (configuration not stated) yielded a melting point of 52 to 52.5 °C.

`N#CCN1C(=O)COc2cc(F)c(-n3c(=O)n4n(c3=O)CCCC4)cc21` gave a melting point of 286 to 287 °C.

Molecule `NNC(=S)Nc1ccc2ccccc2c1` came in with a melting point of 174 to 176 °C.

Turning to `CS(=O)(=O)c1ccc(/C(=C\C2CCCCCC2)C(=O)Nc2nccs2)cc1`, the melting point fell in the range of 163 to 165 °C.

Turning to `COc1nc(NCCc2ccc(OC(F)F)cc2)nc(-c2ccc(Cl)c(C(C)(C)O)c2)n1`, the melting point turned out to be 127 °C.

Consider `CCOC(=O)Nc1ccccc1SCc1ncon1`, for which the melting point worked out at 55 °C.

Molecule `Oc1ccc(C(c2ccc(O)cc2)c2ccccc2CN2CCCc3ccccc32)cc1` came in with a melting point of 160 to 163 °C.

As to `COC(=O)C1CN=CN(C)C1` (configuration not stated), the melting point was 93 to 95 °C.

Molecule `CC(C)c1nc(COC(N)=O)n(Cc2ccc[nH]c2=O)c1Sc1cc(Cl)cc(Cl)c1` yielded a melting point of 214 °C.

The molecule `O=P(O)(O)CCCCCCC(F)(F)C(F)(F)C(F)(F)C(F)(F)F` showed a melting point of 107 to 108 °C.

On to `COc1cccc(-c2cc(=O)cc(N3CCOCC3)o2)c1`, for which the melting point lay within 115 to 117 °C.

Turning to `Cc1ccc(-c2cc(Cl)cc3c2NC(CN)CO3)c(C(F)(F)F)c1` (configuration not stated), the melting point amounted to 98 °C.

Molecule `COc1ccc(C=Cc2ccc(C)c(Cl)c2)c(Cl)c1` showed a melting point of 77 to 79 °C.

Regarding `CC(=O)Nc1c(-c2ccc(-c3ccccc3)cc2)nc2ccc(F)cc2c1C(=O)O`, the melting point lay within 256 to 259 °C.

For `C1=c2cc3c(cc2Sc2ccccc21)=Cc1ccccc1S3`, the melting point is 276 to 280 °C.

Regarding `CCCCCCCCC(Br)C(=O)Nc1c(OC)cc(OC)cc1OC` (configuration not stated), the melting point fell in the range of 109 to 110 °C.

The molecule `O=C(CCc1ccccc1)Nc1cc(C(=O)NCc2ccccc2)ccn1` showed a melting point of 177 to 179 °C.

Consider `Cc1cc(O)n2nc(S(=O)(=O)Nc3c(Cl)cccc3Cl)nc2n1`, for which the melting point was 302 °C.

`CC(=NC(=Nc1ccccc1)N1CCOCC1)NC(C)(C)C` showed a melting point of 164 to 166 °C.
